From patent US20120046329A1, “MODULATORS OF NOD1 AND NOD2 SIGNALING, METHODS OF IDENTIFYING MODULATORS OF NOD1 AND NOD2 SIGNALING, AND USES THEREOF” (Sanford-Burnham Medical Research Institute, priority 2010, published 2012)
Where two headings read alike, the source gives them in different places.

T1: NOD1 (Homo sapiens, UniProt Q9Y239)
T1 sequence (Q9Y239 1-953): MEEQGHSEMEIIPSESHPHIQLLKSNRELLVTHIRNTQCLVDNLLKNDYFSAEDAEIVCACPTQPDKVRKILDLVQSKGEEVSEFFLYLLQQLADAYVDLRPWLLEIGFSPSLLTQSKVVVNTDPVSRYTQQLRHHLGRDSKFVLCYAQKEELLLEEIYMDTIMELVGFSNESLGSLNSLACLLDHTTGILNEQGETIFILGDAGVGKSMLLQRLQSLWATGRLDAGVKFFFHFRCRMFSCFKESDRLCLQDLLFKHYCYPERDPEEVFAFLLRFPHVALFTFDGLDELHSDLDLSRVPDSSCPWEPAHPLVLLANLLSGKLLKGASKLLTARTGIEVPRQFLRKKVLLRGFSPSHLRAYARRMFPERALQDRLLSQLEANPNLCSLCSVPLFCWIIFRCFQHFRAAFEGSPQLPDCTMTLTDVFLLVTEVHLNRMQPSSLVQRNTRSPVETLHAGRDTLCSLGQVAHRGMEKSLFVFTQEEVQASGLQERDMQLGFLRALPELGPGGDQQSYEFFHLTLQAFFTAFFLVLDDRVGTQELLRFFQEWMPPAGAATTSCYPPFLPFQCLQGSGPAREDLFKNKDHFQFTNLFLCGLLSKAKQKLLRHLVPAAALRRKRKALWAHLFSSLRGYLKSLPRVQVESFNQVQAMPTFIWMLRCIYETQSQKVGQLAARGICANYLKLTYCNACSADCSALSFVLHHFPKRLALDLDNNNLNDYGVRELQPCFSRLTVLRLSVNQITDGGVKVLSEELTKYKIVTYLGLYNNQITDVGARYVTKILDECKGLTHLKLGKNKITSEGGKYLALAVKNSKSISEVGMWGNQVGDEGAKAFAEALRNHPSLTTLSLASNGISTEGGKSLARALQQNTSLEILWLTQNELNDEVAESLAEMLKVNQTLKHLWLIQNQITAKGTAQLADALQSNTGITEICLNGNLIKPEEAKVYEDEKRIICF


Legend:
TNF-α induced NF-κB = assay: TNF-α-induced NF-κB luciferase reporter counterscreen, HEK293T; type: cell-based, human; settings: Homo sapiens, HEK-293T
NOD2 = NOD2 (Homo sapiens, UniProt Q9HC29); assay: NOD2 NF-κB luciferase reporter assay, HEK293T cells over-expressing NOD2; type: cell-based; design: expressed in transfected cells; host or cells: HEK293T NF-κB-luciferase cells, lentiviral transduction, sorted by EGFP
NOD2, sequence (Q9HC29 whole entry): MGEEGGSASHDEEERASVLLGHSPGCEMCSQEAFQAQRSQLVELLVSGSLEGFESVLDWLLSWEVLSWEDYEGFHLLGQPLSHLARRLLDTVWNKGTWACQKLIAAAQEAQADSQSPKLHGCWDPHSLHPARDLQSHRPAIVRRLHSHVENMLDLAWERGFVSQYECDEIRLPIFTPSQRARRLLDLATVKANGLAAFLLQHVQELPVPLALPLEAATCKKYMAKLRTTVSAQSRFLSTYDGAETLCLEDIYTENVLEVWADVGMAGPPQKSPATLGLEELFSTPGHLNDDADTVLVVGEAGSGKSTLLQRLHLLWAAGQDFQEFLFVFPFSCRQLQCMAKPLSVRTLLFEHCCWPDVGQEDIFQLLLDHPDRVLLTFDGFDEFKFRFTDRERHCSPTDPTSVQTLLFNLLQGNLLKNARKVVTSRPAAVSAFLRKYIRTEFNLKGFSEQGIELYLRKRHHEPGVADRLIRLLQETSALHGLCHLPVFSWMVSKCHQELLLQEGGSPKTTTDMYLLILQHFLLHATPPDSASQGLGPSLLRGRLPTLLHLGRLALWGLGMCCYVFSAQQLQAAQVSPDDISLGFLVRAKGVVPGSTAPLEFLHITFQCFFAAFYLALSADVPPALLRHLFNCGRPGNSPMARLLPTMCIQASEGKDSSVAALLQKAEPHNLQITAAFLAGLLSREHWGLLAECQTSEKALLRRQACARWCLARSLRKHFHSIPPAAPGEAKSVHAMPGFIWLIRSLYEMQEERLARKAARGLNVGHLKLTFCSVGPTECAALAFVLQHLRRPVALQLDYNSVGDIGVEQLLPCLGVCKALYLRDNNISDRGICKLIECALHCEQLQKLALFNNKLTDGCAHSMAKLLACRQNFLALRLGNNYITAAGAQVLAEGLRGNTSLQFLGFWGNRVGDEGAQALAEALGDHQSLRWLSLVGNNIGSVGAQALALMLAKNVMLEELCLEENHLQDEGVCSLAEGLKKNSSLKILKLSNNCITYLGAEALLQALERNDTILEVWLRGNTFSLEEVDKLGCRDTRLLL

NOD1 = molecular target: T1, NOD1; assay: NOD1 NF-κB luciferase reporter assay, γ-tri-DAP-stimulated HEK293T cells; settings: for Effect on NOD-driven NF-κB reporter gene activity: data not shown
XIAP/RIP2 interaction = molecular target: T2, XIAP/RIP2 interaction (Homo sapiens, UniProt P98170); assay: GST-XIAP pull-down of FLAG-RIP2 in vitro; type: binding
T2 construct: made in house; FLAG-RIP2: transfected HEK293T lysate
T2 sequence (P98170 whole entry): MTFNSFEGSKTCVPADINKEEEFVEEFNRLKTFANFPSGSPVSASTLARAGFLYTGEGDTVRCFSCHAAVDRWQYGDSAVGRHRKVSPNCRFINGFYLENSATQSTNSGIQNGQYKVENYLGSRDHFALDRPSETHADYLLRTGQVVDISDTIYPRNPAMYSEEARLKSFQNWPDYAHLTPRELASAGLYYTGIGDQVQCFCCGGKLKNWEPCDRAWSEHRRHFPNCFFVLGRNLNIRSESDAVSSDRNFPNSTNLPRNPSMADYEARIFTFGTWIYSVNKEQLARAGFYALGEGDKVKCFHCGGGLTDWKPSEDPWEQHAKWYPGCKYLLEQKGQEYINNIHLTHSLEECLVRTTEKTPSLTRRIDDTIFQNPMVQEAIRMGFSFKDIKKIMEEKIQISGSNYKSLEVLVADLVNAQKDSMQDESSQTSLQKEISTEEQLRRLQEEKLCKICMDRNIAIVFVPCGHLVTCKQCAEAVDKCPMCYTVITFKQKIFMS
Description: (A) Schematic representation of GFP-XIAP mutants. (B) Transfected HEK293T cells expressing FLAG-RIP2 together with GFP-XIAPWT, GFPXIAPE219R, GFP-XIAPH223V, GFP-XIAPE219R/H223V or GFP-control were lysed and subjected to immunoprecipitation using anti-FLAG antibody. Immunoprecipitates were analyzed by SDS/PAGE/immunoblotting using anti-FLAG and anti-GFP antibodies. Protein binding was quantified by densitometry analysis, measuring the integrated density value expressed as arbitrary units of the GFP-XIAP bands. Values are expressed as mean±SD of three independent experiments. […] Beads were analyzed by immunoblotting using anti-FLAG-HRP, anti-XIAP/anti-GST or anti-SMAC antibodies as indicated. An aliquot of lysates was also directly analyzed by immunoblotting (“input”).
In another set of experiments, for immunoprecipitation (IP), cells were lysed in IP buffer [20 mM iris pH 7.5, 135 mM NaCl, 1 mM EDTA or 1 mM EGTA (for binding assays involving NODS), 0.5% Nonidet P-40, 10% glycerol, 10 mM NaF, 1 mM DTT, 2 mM Na3VO4, 20 μM leupeptin, 1 mM PMSF, 20 mM N-ethylmaleimide, 0.5 μM iodoacetic acid, 1× protease inhibitor mix (Roche Applied Science)]. […] After incubation overnight bound immune complexes were washed four times in IP buffer, boiled in 2× Laemmli buffer and analyzed by SDS/PAGE and immunoblotted using various antibodies as specifically indicated. […]

[1] = TNF-α-stimulated NF-κB luciferase, HEK293T, read-out: TNF-α IC50

Row | Molecule | IC50 (TNF-α induced NF-κB; [1]) [µM] | IC50 (NOD2) [µM] | IC50 (NOD1) [µM] | further results
1 | Nc1nc2ccccc2n1S(=O)(=O)c1ccccc1 [Compound 4] | – | – | – | IC50 (TNF-α induced NF-κB; read-out: TNF-α IC50(μM)): > 20 µM
2 | Nc1nc2ccccc2n1S(=O)(=O)c1ccc([N+](=O)[O-])cc1 [Compound 5] | – | – | – | IC50 (TNF-α induced NF-κB; read-out: TNF-α IC50(μM)): > 20 µM
3 | Cc1ccc(S(=O)(=O)n2cnc3ccccc32)cc1 [Compound 6] | – | – | – | IC50 (TNF-α induced NF-κB; read-out: TNF-α IC50(μM)): > 20 µM
4 | Nc1nc2ccccc2n1S(=O)(=O)c1ccc(OC(F)(F)F)cc1 [Compound 11] | > 20 | > 20 | – | –
5 | CC(C)c1ccc(S(=O)(=O)n2c(N)nc3ccccc32)cc1 [Compound 12] | > 20 | > 20 | – | –
6 | Nc1nc2ccccc2n1S(=O)(=O)c1ccc(F)cc1 [Compound 13] | > 20 | > 20 | – | –
7 | Nc1nc2ccccc2n1S(=O)(=O)c1ccc(Cl)c(Cl)c1 [Compound 14] | > 20 | > 20 | – | –
8 | Nc1nc2ccccc2n1S(=O)(=O)c1cccs1 [Compound 16] | 6.6 | > 25 | 11 | –
9 | C=CCNC1=C2C[C@@H](C)C[C@H](OC)[C@H](O)[C@@H](C)/C=C(\C)[C@H](OC(N)=O)[C@@H](OC)C=C/C=C(\C)C(=O)NC(=CC1=O)C2=O [Compound 17-AGG, reference compound] | – | – | – | Effect on NOD-driven NF-κB reporter gene activity (NOD1): suppress
10 | Nc1nc2ccccc2n1S(=O)(=O)c1ccc2c(c1)CCC2 [Compound 17] | > 25 | 0.6 | 0.8 | –
11 | Cc1ccc(S(=O)(=O)n2c(N)nc3cc(C)ccc32)cc1 [Compound 18] | > 25 | 15 | 9.3 | –
12 | Cc1ccc(S(=O)(=O)n2c(N)nc3cc(C(F)(F)F)ccc32)cc1 [Compound 20] | 2.3 | 4.7 | 1.6 | –
13 | Cc1ccc(S(=O)(=O)n2c(N)nc3ccc(C(F)(F)F)cc32)cc1 [Compound 21] | 12.3 | 10 | 3.9 | –
14 | Cc1ccc(S(=O)(=O)n2c(N)nc3cc(F)ccc32)cc1 [Compound 22] | > 25 | > 25 | 1.8 | –
15 | Cc1ccc(S(=O)(=O)n2c(N)nc3ccc(F)cc32)cc1 [Compound 23] | > 25 | > 25 | 6.2 | –
16 | COc1ccc2c(c1)nc(N)n2S(=O)(=O)c1ccc(C)cc1 [Compound 24] | > 25 | 3.1 | 1.9 | –
17 | CCOC(=O)c1ccc2nc(N)n(S(=O)(=O)c3ccc(C)cc3)c2c1 [Compound 25] | > 25 | 7.6 | 3 | –

Row | Molecule | IC50 (TNF-α induced NF-κB; [1]) [µM] | IC50 (NOD2) [µM] | IC50 (NOD1) [µM] | further results
18 | Cc1ccc(S(=O)(=O)n2c(N)nc3c(N)cccc32)cc1 [Compound 26] | > 25 | 12.8 | 17.5 | –
19 | Cc1ccc(S(=O)(=O)n2c(CNC=O)nc3ccccc32)cc1 [Compound 27] | 8.4 | 15.6 | 10.9 | –
20 | Cc1ccc(S(=O)(=O)n2c(NCCCO)nc3ccccc32)cc1 [Compound 28] | > 25 | > 25 | 12.1 | –
21 | Cc1cccc(S(=O)(=O)n2c(N)nc3ccccc32)c1 [Compound 29] | > 100 | – | 3.8 | –
22 | Nc1nc2ccccc2n1S(=O)(=O)c1cccc(Br)c1 [Compound 31] | – | – | 3.5 | IC50 (TNF-α induced NF-κB; read-out: TNF-α IC50(μM)): > 100 µM
23 | Nc1nc2ccccc2n1S(=O)(=O)c1cccc(C(F)(F)F)c1 [Compound 32] | > 100 | – | 12.4 | –
24 | Nc1nc2ccccc2n1S(=O)(=O)c1cccc(OC(F)(F)F)c1 [Compound 33] | > 100 | – | > 25 | –
25 | CCCc1cccc(S(=O)(=O)n2c(N)nc3ccccc32)c1 [Compound 34] | > 100 | – | 1.3 | –
26 | CC(C)(C)c1cccc(S(=O)(=O)n2c(N)nc3ccccc32)c1 [Compound 35] | 15.6 | – | 3.3 | –
27 | COc1cccc(S(=O)(=O)n2c(N)nc3ccccc32)c1 [Compound 36] | > 100 | – | 14.5 | –
28 | Nc1nc2ccccc2n1S(=O)(=O)c1cc(Cl)c(Cl)s1 [Compound 37] | 18.4 | – | 2.2 | –
29 | Nc1nc2ccccc2n1S(=O)(=O)c1ccc(-c2ccccc2)cc1 [Compound 39] | – | – | 1.5 | IC50 (TNF-α induced NF-κB; read-out: TNF-α IC50(μM)): 4.2 µM
30 | COc1ccc(-c2ccc(S(=O)(=O)n3c(N)nc4ccccc43)cc2)cc1 [Compound 40] | 5.2 | – | – | –
31 | COC1=C2C[C@@H](C)C[C@H](OC)[C@H](O)[C@@H](C)/C=C(\C)[C@H](OC(N)=O)[C@@H](OC)/C=C\C=C(/C)C(=O)NC(=CC1=O)C2=O [geldanomycin, reference compound] | – | – | – | Effect on NOD-driven NF-κB reporter gene activity (NOD1): suppress
32 | C[n+]1cc2c3c(ccc2c2ccc4cc5c(cc4c21)OCO5)OCO3 [sanguinarine, reference compound] | – | – | – | inhibition at 4 µM (NOD1; HEK-293T, read-out: Luciferase inhibition, hit cut-off): ≥ 50%
33 | SMAC protein: recombinant SMAC protein, dimeric, binds BIR2 and BIR3 domains of XIAP (protein, UniProt Q9NR28 22-239, looked up, His6 tag) Diablo IAP-binding …: LCVPVVANFKKRCFSELIRPWHKTVTIGFGVTLCAVPIAQKSEPHSLSSEALMRRAVSLVTDSTSTFLSQTTYALIEAITEYTKAVYTLTSLYRQYTSLLGKMNSEEEDEVWQVIIGARAEMTSKHQEYLKLETTWMTAVGLSEMAAEAAYQTGADQASITARNHIQLVKLQVEEVHQLSRKAETKLAEAQIEELRQKTQEEGEERAESEQEAYLRED | – | – | – | Effect on XIAP/RIP2 interaction in vitro (XIAP/RIP2 interaction): concentration-dependent inhibition
